# Source: patent US20210238162A1, “CHEMICAL COMPOUNDS” (GlaxoSmithKline Intellectual Property Development Limited, priority 2015, published 2021)
# Where a name gives a salt, the structure may show the parent alone.
# Molecular target: T1, haematopoietic prostaglandin D synthase (H-PGDS) (Homo sapiens, UniProt O60760)
# T1 construct: Full length human H-PGDS cDNA (Invitrogen Ultimate ORF IOH13026) was amplified by PCR; made in house; host or cells: E. coli BL21 (DE3*), vector pET22b+
# Experiment: H-PGDS RapidFire High Throughput Mass Spectrometry Assay
# Type: biochemical
# Conditions: H-PGDS RapidFire MS assay, mean pIC50; read-out: Potency Range (mean pIC50) (converted)
# Summary of the method: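 PGH2 (~10 μM burst) generated in situ from arachidonic acid by FLAG-tagged human COX-2 (Sf9-expressed), then converted to PGD2 by full-length human His-tagged H-PGDS from E. coli. PGD2 and PGF2α (substrate surrogate) quantified by RapidFire SPE-triple quadrupole MS; percent conversion calculated.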
# T1 sequence (O60760 whole entry): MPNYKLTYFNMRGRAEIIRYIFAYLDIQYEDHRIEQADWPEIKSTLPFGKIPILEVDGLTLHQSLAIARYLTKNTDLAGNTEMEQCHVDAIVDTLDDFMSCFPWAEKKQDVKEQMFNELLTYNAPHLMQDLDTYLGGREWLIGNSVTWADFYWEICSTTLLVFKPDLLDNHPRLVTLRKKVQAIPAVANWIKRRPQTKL
row,Structure (SMILES),IC50 [nM]
1,"CC(C)(O)[C@H]1CC[C@H](NC(=O)c2cnc3cc(C4CCC4)ccc3c2)CC1 [Example 197, 7-Cyclobutyl-N-(trans-4-(2-hydroxypropan-2-yl)cyclohexyl)quinoline-3-carboxamide]",10 to 79.4
2,"C[C@H](N[C@H]1CC[C@H](NC(=O)c2cnc3cc(OC(F)F)c(F)cc3c2)CC1)C(F)F [Example 70, 7-(Difluoromethoxy)-N-(trans-4-(((S)-1,1-difluoropropan-2-yl)amino)cyclohexyl)-6-fluoroquinoline-3-carboxamide]",< 10
3,"CC(C)(O)[C@@H]1CC[C@@H](NC(=O)c2cnc3cc(OC(F)F)c(Cl)cc3c2)CO1 (racemic) [Example 124, Racemic 6-chloro-7-(difluoromethoxy)-N-((3r,6s)-6-(2-hydroxypropan-2-yl)tetrahydro-2H-pyran-3-yl)quinoline-3-carboxamide]",< 10
4,"C[C@]1(O)CC[C@H](NC(=O)c2cnc3cc(OC(F)F)c(Cl)cc3c2)CC1 [Example 143, 6-Chloro-7-(difluoromethoxy)-N-((1r,4r)-4-hydroxy-4-methylcyclohexyl)quinoline-3-carboxamide]",< 10
5,"Cn1nnnc1N1CCC(NC(=O)c2cnc3cc(C4CC4)c(C#N)cc3c2)CC1 [Example 24, 6-Cyano-7-cyclopropyl-N-(1-(1-methyl-1H-tetrazol-5-yl)piperidin-4-yl)quinoline-3-carboxamide]",10 to 79.4
6,"CC1CN(c2cc3ncc(C(=O)N[C@H]4CC[C@H](C(C)(C)O)CC4)cc3cc2F)C1 [Example 183, 6-Fluoro-N-(trans-4-(2-hydroxypropan-2-yl)cyclohexyl)-7-(3-methylazetidin-1-yl)quinoline-3-carboxamide]",10 to 79.4
7,"O=C(N[C@H]1CC[C@H](OCC2(O)CC2)CC1)c1cnc2cc(OC(F)F)c(Cl)cc2c1 [Example 123, 6-Chloro-7-(difluoromethoxy)-N-(trans-4-((1-hydroxycyclopropyl)methoxy)cyclohexyl)quinoline-3-carboxamide]",< 10
8,"Cn1nc(C2CC2)cc1NC(=O)c1cnc2cc(OC(F)F)c(Cl)cc2c1 [Example 128, 6-Chloro-N-(3-cyclopropyl-1-methyl-1H-pyrazol-5-yl)-7-(difluoromethoxy)quinoline-3-carboxamide]",10 to 79.4
9,"CC(C)(O)[C@H]1CC[C@H](NC(=O)c2cnc3c4c(ccc3c2)CCO4)CC1 [Example 113, N-(trans-4-(2-Hydroxypropan-2-yl)cyclohexyl)-2,3-dihydrofuro[3,2-h]quinoline-7-carboxamide]",10 to 79.4
10,"CC(C)CN1CC[C@H](NC(=O)c2cnc3cc(OC(F)F)c(F)cc3c2)C1=O [Example 50, (S)-7-(Difluoromethoxy)-6-fluoro-N-(1-isobutyl-2-oxopyrrolidin-3-yl)quinoline-3-carboxamide]",10 to 79.4
11,"CCOc1cc2ncc(C(=O)N[C@H]3CC[C@H](C(C)(C)O)CC3)cc2cc1F [Example 178, 7-Ethoxy-6-fluoro-N-(trans-4-(2-hydroxypropan-2-yl)cyclohexyl)quinoline-3-carboxamide]",10 to 79.4
12,"O=C(N[C@H]1C[C@H](N2CC(O)(C(F)(F)F)C2)C1)c1cnc2cc(OC(F)F)c(Cl)cc2c1 [Example 214, 6-Chloro-7-(difluoromethoxy)-N-((trans)-3-(3-hydroxy-3-(trifluoromethyl)azetidin-1-yl)cyclobutyl)quinoline-3-carboxamide]",< 10
13,"C#CCOC[C@H]1CC[C@H](NC(=O)c2cnc3cc(OC(F)F)c(F)cc3c2)CC1 [Example 101, 7-(Difluoromethoxy)-6-fluoro-N-(trans-4-((prop-2-yn-1-yloxy)methyl)cyclohexyl)quinoline-3-carboxamide]",< 10
14,"N#Cc1cc2cc(C(=O)NC3CC(=O)Nc4ccccc43)cnc2cc1C1CC1 (stereo not shown) [Example 26, 6-Cyano-7-cyclopropyl-N-(2-oxo-1,2,3,4-tetrahydroquinolin-4-yl)quinoline-3-carboxamide]",< 10
15,"Cn1nnnc1N1CCC(NC(=O)c2cnc3ccc(Cl)cc3c2)CC1 [Example 106, 6-Chloro-N-(1-(1-methyl-1H-tetrazol-5-yl)piperidin-4-yl)quinoline-3-carboxamide]",100 to 1000
16,"CS(=O)(=O)N1CCC(NC(=O)c2cnc3cc(OC(F)F)ccc3c2)CC1 [Example 7, 7-(Difluoromethoxy)-N-(1-(methylsulfonyl)piperidin-4-yl)quinoline-3-carboxamide]",10 to 79.4
17,"O=C(N[C@H]1CC[C@](O)(C(F)(F)F)CC1)c1cnc2cc(OC(F)F)c(Cl)cc2c1 [Example 223, 6-Chloro-7-(difluoromethoxy)-N-((cis)-4-hydroxy-4-(trifluoromethyl)cyclohexyl)quinoline-3-carboxamide]",10 to 79.4
18,"CC1C[C@H](NC(=O)c2cnc3cc(OC(F)F)c(Cl)cc3c2)C(=O)N1 (mixture of isomers) [Example 133, 6-Chloro-7-(difluoromethoxy)-N-((3S)-5-methyl-2-oxopyrrolidin-3-yl)quinoline-3-carboxamide]",10 to 79.4

row,Structure (SMILES),IC50 [nM]
1,"CS(=O)(=O)CCO[C@H]1CC[C@H](NC(=O)c2cnc3cc(OC(F)F)c(F)cc3c2)CC1 [Example 94, 7-(Difluoromethoxy)-6-fluoro-N-(trans-4-(2-(methylsulfonyl)ethoxy)cyclohexyl)quinoline-3-carboxamide]",10 to 79.4
2,"NCCCOC[C@H]1CC[C@H](NC(=O)c2cnc3cc(OC(F)F)ccc3c2)CC1 [Example 23, N-(trans-4-((3-Aminopropoxy)methyl)cyclohexyl)-7-(difluoromethoxy)quinoline-3-carboxamide]",10 to 79.4
3,"COc1cc2ncc(C(=O)NC3CCN(c4nnnn4C)CC3)cc2cc1C#N [Example 114, 6-Cyano-7-methoxy-N-(1-(1-methyl-1H-tetrazol-5-yl)piperidin-4-yl)quinoline-3-carboxamide]",100 to 1000
4,"C[N+](C)([O-])[C@H]1CC[C@H](NC(=O)c2cnc3cc(OC(F)F)c(Cl)cc3c2)CC1 [Example 208, trans-4-(6-Chloro-7-(difluoromethoxy)quinoline-3-carboxamido)-N,N-dimethylcyclohexanamine oxide]",10 to 79.4
5,"CC(C)(O)[C@H]1CC[C@H](NC(=O)c2cnc3c(Cl)c(OC(F)F)c(F)cc3c2)CC1 [Example 235, 8-Chloro-7-(difluoromethoxy)-6-fluoro-N-(trans-4-(2-hydroxypropan-2-yl)cyclohexyl)quinoline-3-carboxamide]",10 to 79.4
6,"CC(N[C@H]1CC[C@H](NC(=O)c2cnc3cc(OC(F)F)c(Cl)cc3c2)CC1)C(F)F (mixture of isomers) [Example 125, 6-Chloro-7-(difluoromethoxy)-N-(trans-4-((1,1-difluoropropan-2-yl)amino)cyclohexyl)quinoline-3-carboxamide]",< 10
7,"O=C(N[C@H]1CCNC1=O)c1cnc2cc(C3CC3)c(F)cc2c1 [Example 41, (S)-7-cyclopropyl-6-fluoro-N-(2-oxopyrrolidin-3-yl)quinoline-3-carboxamide hydrochloride]",10 to 79.4
8,CNc1cc2ncc(C(=O)N[C@H]3CC[C@H](C(C)(C)O)CC3)cc2cc1Cl [Example 209],< 10
9,"O=C(N[C@@H]1CC[C@@H](C(O)C(F)(F)F)OC1)c1cnc2cc(OC(F)F)ccc2c1 (mixture of isomers) [Example 17, Racemic 7-(Difluoromethoxy)-N-((3R,6S)-6-(2,2,2-trifluoro-1-hydroxyethyl)tetrahydro-2H-pyran-3-yl)quinoline-3-carboxamide]",10 to 79.4
10,"CC(C)(O)[C@H]1CC[C@H](NC(=O)c2cnc3c(Cl)c(OC(F)F)c(Cl)cc3c2)CC1 [Example 217, 6,8-Dichloro-7-(difluoromethoxy)-N-((trans)-4-(2-hydroxypropan-2-yl)cyclohexyl)quinoline-3-carboxamide]",< 10
11,"O=C(N[C@H]1CC[C@H](N[C@H](CO)C(F)(F)F)CC1)c1cnc2cc(OC(F)F)c(Br)cc2c1 [Example 155, 6-Bromo-7-(difluoromethoxy)-N-(trans-4-(((R)-1,1,1-trifluoro-3-hydroxypropan-2-yl)amino)cyclohexyl)quinoline-3-carboxamide]",< 10
12,CC(C)(O)[C@H]1CC[C@H](NC(=O)c2cnc3cc(C4CC4)c(Cl)cc3c2)CC1 [Example 39],< 10
13,"COc1ccc2cc(C(=O)NC3CCN(c4nnnn4C)CC3)cnc2c1OC [Example 33, 7,8-Dimethoxy-N-(1-(1-methyl-1H-tetrazol-5-yl)piperidin-4-yl)quinoline-3-carboxamide]",10 to 79.4
14,"CC(N[C@H]1CC[C@H](NC(=O)c2cnc3cc(OC(F)F)c(F)cc3c2)CC1)C(F)F (stereo partly drawn) [Example 67, 7-(Difluoromethoxy)-N-(trans-4-((1,1-difluoropropan-2-yl)amino)cyclohexyl)-6-fluoroquinoline-3-carboxamide]",10 to 79.4
15,"O=C(NC1CCOCC1)c1cnc2cc(OC(F)F)c(Cl)cc2c1 [Example 148, 6-Chloro-7-(difluoromethoxy)-N-(tetrahydro-2H-pyran-4-yl)quinoline-3-carboxamide]",10 to 79.4
16,"CSc1cc2ncc(C(=O)N[C@H]3CC[C@H](C(C)(C)O)CC3)cc2cc1F [Example 161, 6-Fluoro-N-(trans-4-(2-hydroxypropan-2-yl)cyclohexyl)-7-(methylthio)quinoline-3-carboxamide]",< 10
17,"CC(C)(O)[C@H]1CC[C@H](NC(=O)c2cnc3cc(N4CCC4)ccc3c2)CC1 [Example 194, 7-(Azetidin-1-yl)-N-(trans-4-(2-hydroxypropan-2-yl)cyclohexyl)quinoline-3-carboxamide]",< 10
18,"C[C@H](N[C@H]1C[C@H](NC(=O)c2cnc3cc(OC(F)F)c(F)cc3c2)C1)C(F)F [Example 73, 7-(Difluoromethoxy)-N-(trans-3-(((S)-1,1-difluoropropan-2-yl)amino)cyclobutyl)-6-fluoroquinoline-3-carboxamide]",10 to 79.4

# Same assay, conditions: in at least one experimental run; read-out: H-PGDS pIC50 value (converted)
row,Structure (SMILES),IC50 [nM]
1,"O=C(N[C@H]1C[C@H](N2CC(O)(C(F)(F)F)C2)C1)c1cnc2cc(OC(F)F)c(Cl)cc2c1 [Example 214, 6-Chloro-7-(difluoromethoxy)-N-((trans)-3-(3-hydroxy-3-(trifluoromethyl)azetidin-1-yl)cyclobutyl)quinoline-3-carboxamide]",6.31
